Experimental data published in patent US20170088520A1, “DEUBIQUITINASE INHIBITORS” (PharmAkea, Inc., priority 2014, published 2017).

Assays:
Assay type in all cases: cell-based
[1] = tested on: PARP cleavage in cells (NCI-H929, Z138, MM.1S, A-375); assay: Analysis of PARP cleavage by Western blotting; settings: compound tested at 5 μM; Western blot
Summary of the method: (§1)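 NCI-H929, Z138, MM.1S and A-375 cells were treated with compounds at 5 μM, and lysates were Western blotted with anti-Mcl-1 and anti-PARP antibodies, quantified by infrared fluorescence. Activity is a significant drop in Mcl-1 and the appearance of cleaved PARP, each relative to vehicle-treated cells.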

[2] = target: T1, DUB activity in cells (NCI-H929, Z138, MM.1S, A375) (Homo sapiens, UniProt Q93008); assay: HA-Ubiquitin-Vinylsulfone (HA-Ub-VS) cell labeling assay; settings: compound tested at 5 μM; HA-Ub-VS labeling of USP9x in cells
T1 construct: endogenous in cells; host or cells: NCI-H929, Z138, MM.1S, A375
T1 sequence (Q93008 whole entry): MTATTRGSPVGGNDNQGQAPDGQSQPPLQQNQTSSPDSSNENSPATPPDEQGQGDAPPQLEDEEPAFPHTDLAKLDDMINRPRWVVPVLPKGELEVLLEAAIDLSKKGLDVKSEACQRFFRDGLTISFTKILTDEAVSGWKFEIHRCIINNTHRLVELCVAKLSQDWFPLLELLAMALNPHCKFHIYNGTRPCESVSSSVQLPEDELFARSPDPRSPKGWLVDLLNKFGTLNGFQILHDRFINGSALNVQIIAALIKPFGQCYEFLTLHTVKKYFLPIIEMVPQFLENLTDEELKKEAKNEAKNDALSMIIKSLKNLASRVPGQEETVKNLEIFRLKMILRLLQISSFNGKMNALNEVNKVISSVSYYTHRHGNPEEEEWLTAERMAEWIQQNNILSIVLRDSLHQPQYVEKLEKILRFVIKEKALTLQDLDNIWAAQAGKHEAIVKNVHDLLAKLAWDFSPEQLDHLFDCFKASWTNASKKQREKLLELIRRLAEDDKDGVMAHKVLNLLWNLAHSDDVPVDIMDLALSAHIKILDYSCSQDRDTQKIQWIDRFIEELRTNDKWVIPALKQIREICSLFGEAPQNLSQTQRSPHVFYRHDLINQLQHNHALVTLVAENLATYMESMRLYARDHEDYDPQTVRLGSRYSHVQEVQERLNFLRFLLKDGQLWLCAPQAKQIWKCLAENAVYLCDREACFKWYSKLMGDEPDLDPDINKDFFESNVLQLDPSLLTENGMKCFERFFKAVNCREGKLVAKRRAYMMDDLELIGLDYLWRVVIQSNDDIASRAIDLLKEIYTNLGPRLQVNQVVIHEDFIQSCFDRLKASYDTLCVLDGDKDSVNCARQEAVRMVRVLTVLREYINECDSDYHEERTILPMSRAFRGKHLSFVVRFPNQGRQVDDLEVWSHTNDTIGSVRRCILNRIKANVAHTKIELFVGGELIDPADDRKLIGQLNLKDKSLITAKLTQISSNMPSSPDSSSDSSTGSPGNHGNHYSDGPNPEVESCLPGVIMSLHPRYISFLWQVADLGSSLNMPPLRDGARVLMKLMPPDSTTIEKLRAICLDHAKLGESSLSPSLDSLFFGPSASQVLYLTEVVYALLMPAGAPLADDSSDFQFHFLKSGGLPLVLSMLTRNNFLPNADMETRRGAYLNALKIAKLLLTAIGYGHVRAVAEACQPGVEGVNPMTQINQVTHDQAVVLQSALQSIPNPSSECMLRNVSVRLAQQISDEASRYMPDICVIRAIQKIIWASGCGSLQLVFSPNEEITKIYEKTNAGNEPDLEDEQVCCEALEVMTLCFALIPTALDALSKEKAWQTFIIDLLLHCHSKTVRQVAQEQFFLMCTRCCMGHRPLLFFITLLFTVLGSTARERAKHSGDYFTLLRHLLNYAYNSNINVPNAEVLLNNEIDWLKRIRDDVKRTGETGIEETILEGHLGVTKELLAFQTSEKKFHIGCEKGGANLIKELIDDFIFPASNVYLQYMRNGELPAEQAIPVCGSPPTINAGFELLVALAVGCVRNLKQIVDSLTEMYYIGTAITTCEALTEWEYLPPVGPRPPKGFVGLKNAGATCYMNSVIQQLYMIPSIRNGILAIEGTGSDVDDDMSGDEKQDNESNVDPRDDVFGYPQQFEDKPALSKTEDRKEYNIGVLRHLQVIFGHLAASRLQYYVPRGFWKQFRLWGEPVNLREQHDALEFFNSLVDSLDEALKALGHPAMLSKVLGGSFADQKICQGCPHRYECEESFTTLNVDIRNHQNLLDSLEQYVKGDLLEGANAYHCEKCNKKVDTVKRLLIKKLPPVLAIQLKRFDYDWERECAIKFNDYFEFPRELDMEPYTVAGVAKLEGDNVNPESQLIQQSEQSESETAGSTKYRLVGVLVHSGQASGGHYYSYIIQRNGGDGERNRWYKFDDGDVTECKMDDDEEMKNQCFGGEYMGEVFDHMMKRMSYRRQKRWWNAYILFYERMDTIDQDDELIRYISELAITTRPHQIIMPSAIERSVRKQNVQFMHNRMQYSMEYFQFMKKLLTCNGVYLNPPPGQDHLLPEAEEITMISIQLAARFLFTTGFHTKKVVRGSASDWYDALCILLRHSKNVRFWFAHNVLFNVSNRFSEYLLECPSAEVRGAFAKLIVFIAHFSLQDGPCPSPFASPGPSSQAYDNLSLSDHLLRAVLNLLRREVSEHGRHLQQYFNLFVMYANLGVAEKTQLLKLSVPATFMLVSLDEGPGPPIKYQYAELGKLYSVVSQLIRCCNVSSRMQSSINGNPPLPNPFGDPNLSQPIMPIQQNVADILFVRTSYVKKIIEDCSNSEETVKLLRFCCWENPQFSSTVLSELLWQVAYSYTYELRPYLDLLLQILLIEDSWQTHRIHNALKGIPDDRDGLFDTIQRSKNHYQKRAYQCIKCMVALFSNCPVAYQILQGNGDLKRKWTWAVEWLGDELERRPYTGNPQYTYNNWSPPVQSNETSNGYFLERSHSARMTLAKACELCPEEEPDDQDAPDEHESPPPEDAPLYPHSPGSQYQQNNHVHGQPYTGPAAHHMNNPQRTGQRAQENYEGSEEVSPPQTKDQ
Summary of the method: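 NCI-H929, Z138, MM.1S or A375 cells (1–2×10^6) treated 2–6 h at 37 °C with compound in 0.5% DMSO, here 5 μM. Lysates labeled with HA-Ub-VS for 15–60 min at 37 °C. Labeled DUBs resolved by SDS-PAGE and quantified by anti-HA and anti-β-actin immunoblot with infrared detection.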

[3] = tested on: Mcl-1 expression in cells (NCI-H929, Z138, MM.1S, A-375); assay: Analysis of Mcl-1 expression by Western blotting; settings: compound tested at 5 μM; Western blot
Summary of the method: as §1

SMILES | inhibition at 5 µM [2] [%] | PARP cleavage % Inhibition [1] | inhibition at 5 µM [3] [%]
N#C/C(=C\c1cccc(-c2ccc(N3CCCCC3)nc2)n1)C(=O)NC1(c2ccccc2)CCCC1 [Compound 65, (E)-2-cyano-N-(1-phenylcyclopentyl)-3-(6′-(piperidin-1-yl)-[2,3′-bipyridin]-6-yl)acrylamide] | 25 to 50 | B (B is 50% to 75% inhibition) | < 25
COc1ccc(COc2ccc(C3(NC(=O)/C(C#N)=C/c4cccc(Br)n4)CCCC3)cc2)cc1 [Compound 72, (E)-3-(6-bromopyridin-2-yl)-2-cyano-N-(1-(4-((4-methoxybenzyl)oxy)phenyl)cyclopentyl)acrylamide] | 50 to 75 | A (A is ≧75% inhibition) | ≥ 75
CC(C)(C)c1ccc(C2(NC(=O)/C(C#N)=C/c3ncc(Br)cc3Br)CCCC2)cc1 [Compound 27, (E)-N-(1-(4-(tert-butyl)phenyl)cyclopentyl)-2-cyano-3-(3,5-dibromopyridin-2-yl)acrylamide] | ≥ 75 | A (A is ≧75% inhibition) | ≥ 75
N#C/C(=C\c1cccc(C2CC2)n1)C(=O)NC1(c2ccc(-c3ccc(C(=O)O)cc3)cc2)CCCC1 [Compound 92, (E)-4′-(1-(2-cyano-3-(6-cyclopropylpyridin-2-yl)acrylamido)cyclopentyl)-[1,1′-biphenyl]-4-carboxylic acid] | 25 to 50 | A (A is ≧75% inhibition) | ≥ 75
CCCCCCCCCCCCCC(=O)OCc1ccc(C2(NC(=O)/C(C#N)=C/c3cccc(Br)n3)CCCC2)cc1 [Compound 84, (E)-4-(1-(3-(6-bromopyridin-2-yl)-2-cyanoacrylamido)cyclopentyl)benzyl tetradecanoate] | < 25 | D (D is <25% inhibition) | < 25
COC(=O)c1ccc(-c2ccc(C3(NC(=O)/C(C#N)=C/c4ncc(Br)cc4Br)CCCC3)cc2)cn1 [Compound 37, (E)-methyl 5-(4-(1-(2-cyano-3-(3,5-dibromopyridin-2-yl)acrylamido)cyclopentyl)phenyl)picolinate] | 50 to 75 | B (B is 50% to 75% inhibition) | 50 to 75
N#C/C(=C\c1cccc(Br)n1)C(=O)NC1(c2ccc(-c3ccc4[nH]ncc4c3)cc2)CCCC1 [Compound 95, (E)-N-(1-(4-(1H-indazol-5-yl)phenyl)cyclopentyl)-3-(6-bromopyridin-2-yl)-2-cyanoacrylamide] | < 25 | D (D is <25% inhibition) | < 25
N#C/C(=C\c1cccc(Br)n1)C(=O)NC1(c2ccc(C#CC3(O)CCCC3)cc2)CCCC1 [Compound 76, (E)-3-(6-bromopyridin-2-yl)-2-cyano-N-(1-(4-((1-hydroxycyclopentyl)ethynyl)phenyl)cyclopentyl)acrylamide] | ≥ 75 | A (A is ≧75% inhibition) | ≥ 75
N#C/C(=C\c1cccc(Br)n1)C(=O)NC1(c2ccc(O)cc2)CCCC1 [Compound 79, (E)-3-(6-bromopyridin-2-yl)-2-cyano-N-(1-(4-hydroxyphenyl)cyclopentyl)acrylamide] | ≥ 75 | A (A is ≧75% inhibition) | ≥ 75
COC(=O)c1cccc(-c2ccc(C3(NC(=O)/C(C#N)=C/c4ncc(Br)cc4Br)CCCC3)cc2)c1 [Compound 38, (E)-methyl 4′-(1-(2-cyano-3-(3,5-dibromopyridin-2-yl)acrylamido)cyclopentyl)-[1,1′-biphenyl]-3-carboxylate] | 50 to 75 | A (A is ≧75% inhibition) | 50 to 75
N#C/C(=C\c1ncc(Br)cc1Br)C(=O)NC1(c2ccc(Cl)cc2)CCCC1 [Compound 22, (E)-N-(1-(4-Chlorophenyl)cyclopentyl)-2-cyano-3-(3,5-dibromopyridin-2-yl)acrylamide] | ≥ 75 | A (A is ≧75% inhibition) | ≥ 75
COC(=O)c1ccc(C2(NC(=O)/C(C#N)=C/c3cccc(Br)n3)CCCC2)cc1 [Compound 41, (E)-methyl 4-(1-(3-(6-bromopyridin-2-yl)-2-cyanoacrylamido)cyclopentyl)benzoate] | 50 to 75 | A (A is ≧75% inhibition) | ≥ 75
COc1ncccc1-c1ccc(C2(NC(=O)/C(C#N)=C/c3ncc(Br)cc3Br)CCCC2)cc1 [Compound 53, (E)-2-cyano-3-(3,5-dibromopyridin-2-yl)-N-(1-(4-(2-methoxypyridin-3-yl)phenyl)cyclopentyl)acrylamide] | < 25 | A (A is ≧75% inhibition) | 50 to 75
CC(C)(C)OC(=O)COc1ccc(C2(NC(=O)/C(C#N)=C/c3cccc(Br)n3)CCCC2)cc1 [Compound 88, (E)-tert-butyl 2-(4-(1-(3-(6-bromopyridin-2-yl)-2-cyanoacrylamido)cyclopentyl)phenoxy)acetate] | ≥ 75 | A (A is ≧75% inhibition) | ≥ 75
C=C(C)c1ccc(C2(NC(=O)/C(C#N)=C/c3ncc(Br)cc3Br)CCCC2)cc1 [Compound 63, (E)-2-cyano-3-(3,5-dibromopyridin-2-yl)-N-(1-(4-(prop-1-en-2-yl)phenyl)cyclopentyl)acrylamide] | ≥ 75 | A (A is ≧75% inhibition) | ≥ 75
COC(=O)/C=C/c1cccc(/C=C(\C#N)C(=O)NC2(c3ccccc3)CCCC2)n1 [Compound 42, (E)-methyl 3-(6-((E)-2-cyano-3-oxo-3-((1-phenylcyclopentyl)amino)prop-1-en-1-yl)pyridin-2-yl)acrylate] | 50 to 75 | A (A is ≧75% inhibition) | ≥ 75
CN(C(=O)/C(C#N)=C/c1cccc(Br)n1)C1(c2ccccc2)CCCC1 [Compound 2-82, (E)-3-(6-bromopyridin-2-yl)-2-cyano-N-methyl-N-(1-phenylcyclopentyl)acrylamide] | 50 to 75 | A (A is ≧75% inhibition) | ≥ 75
N#C/C(=C\c1cccc(-c2ccc(CC(=O)O)cc2)n1)C(=O)NC1(c2ccccc2)CCCC1 [Compound 40] | < 25 | C (C is 25% to 50% inhibition) | < 25

Continued, in another order:

inhibition at 5 µM [2] [%] | SMILES | PARP cleavage % Inhibition [1] | inhibition at 5 µM [3] [%]
25 to 50 | N#C/C(=C\c1ccc(Cl)c(Cl)c1)C(=O)NC1(c2ccccc2)CCCC1 [Compound 11, (E)-3-(3,4-Dichlorophenyl)-2-cyano-N-(1-phenylcyclopentyl)acrylamide] | B (B is 50% to 75% inhibition) | 25 to 50
< 25 | N#C/C(=C\c1cccc(Br)n1)C(=O)NC1(c2ccccc2)CC1 [Compound 2, (E)-3-(6-Bromopyridin-2-yl)-2-cyano-N-(1-phenylcyclopropyl)acrylamide] | C (C is 25% to 50% inhibition) | < 25
< 25 | N#C/C(=C\c1ncccc1F)C(=O)NC1(c2ccccc2)CCCC1 [Compound 8, (E)-3-(3-Fluoropyridin-2-yl)-2-cyano-N-(1-phenylcyclopentyl)acrylamide] | D (D is <25% inhibition) | < 25
50 to 75 | N#C/C(=C\c1ncccc1Br)C(=O)NC1(c2ccccc2)CCCC1 [Compound 46, (E)-3-(3-bromopyridin-2-yl)-2-cyano-N-(1-phenylcyclopentyl)acrylamide] | A (A is ≧75% inhibition) | 50 to 75
≥ 75 | N#C/C(=C\c1ncc(Cl)cc1F)C(=O)NC1(c2ccccc2)CCCC1 [Compound 5, (E)-3-(3-Fluoro-5-chloropyridin-2-yl)-2-cyano-N-(1-phenylcyclopentyl)acrylamide] | A (A is ≧75% inhibition) | ≥ 75
≥ 75 | N#C/C(=C\c1ncc(Br)cc1Br)C(=O)NC1(c2ccccc2)CCOCC1 [Compound 24, (E)-2-Cyano-3-(3,5-dibromopyridin-2-yl)-N-(4-phenyltetrahydro-2H-pyran-4-yl)acrylamide] | A (A is ≧75% inhibition) | 50 to 75
50 to 75 | N#C/C(=C\c1nc(Cl)ccc1Cl)C(=O)NC1(c2ccccc2)CCCC1 [Compound 7, (E)-3-(3,6-Dichloropyridin-2-yl)-2-cyano-N-(1-phenylcyclopentyl)acrylamide] | A (A is ≧75% inhibition) | ≥ 75
≥ 75 | N#C/C(=C\c1nc(Br)ccc1F)C(=O)NC1(c2ccccc2)CCCC1 [Compound 6, (E)-3-(3-Fluoro-6-bromopyridin-2-yl)-2-cyano-N-(1-phenylcyclopentyl)acrylamide] | A (A is ≧75% inhibition) | ≥ 75
50 to 75 | N#C/C(=C\c1nc(Cl)ccc1Br)C(=O)NC1(c2ccccc2)CCCC1 [Compound 10, (E)-3-(3-Bromo-6-chloropyridin-2-yl)-2-cyano-N-(1-phenylcyclopentyl)acrylamide] | B (B is 50% to 75% inhibition) | ≥ 75
